From ChEMBL document CHEMBL5316327, “Design and Synthesis of Orally Active Quinolyl Pyrazinamides as Sigma 2 Receptor Ligands for the Treatment of Pancreatic Cancer” (J Med Chem, 2023) come the findings set out here.

Activity calls are given as the source filed them. The rule behind the calls is not given here.

The target of series [1] is 5-hydroxytryptamine receptor 1D (Homo sapiens, UniProt P28221). Description: Binding affinity to 5-HT1D receptor (unknown origin) assessed as inhibition constant.
5-hydroxytryptamine receptor 1D, sequence (P28221 whole entry): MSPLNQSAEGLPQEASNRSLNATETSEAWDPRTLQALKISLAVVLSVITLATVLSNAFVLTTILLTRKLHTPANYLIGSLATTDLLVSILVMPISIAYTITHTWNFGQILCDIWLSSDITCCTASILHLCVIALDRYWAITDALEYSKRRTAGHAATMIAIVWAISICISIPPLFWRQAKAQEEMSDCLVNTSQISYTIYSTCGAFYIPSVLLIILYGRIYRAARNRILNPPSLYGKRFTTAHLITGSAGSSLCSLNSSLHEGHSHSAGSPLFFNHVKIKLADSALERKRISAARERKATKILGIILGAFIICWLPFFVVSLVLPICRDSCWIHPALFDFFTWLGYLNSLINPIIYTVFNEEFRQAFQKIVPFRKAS
Series [2] addresses Sigma intracellular receptor 2 (Homo sapiens, UniProt Q5BJF2). The series is described as follows: Displacement of [3H][…]ditolylguanidine from human sigma 2 receptor transfected in human HEK293T cells assessed as inhibition constant by radioligand competition binding assay. The class given is cell-based. A general note: In a radioligand displacement assay an active substance lowers the binding of a labelled ligand.

Series [3] in a line: Metabolic stability in mouse liver microsomes assessed as half life at 10 uM measured upto 60 mins in presence of NADPH by LC-MS/MS analysis. The class given is ADME, Microsome. The following applies: 1 h. (Liver microsomes are a subcellular fraction often used to study metabolism.)
Series [4] deals with Muscarinic acetylcholine receptor M1 (Homo sapiens, UniProt P11229). The series is described as follows: Binding affinity to M1 receptor (unknown origin) assessed as inhibition constant.
The target in series [5] is Muscarinic acetylcholine receptor M4 (Homo sapiens, UniProt P08173). Description: Binding affinity to M4 receptor (unknown origin) assessed as inhibition constant.
Muscarinic acetylcholine receptor M4, sequence (P08173 whole entry): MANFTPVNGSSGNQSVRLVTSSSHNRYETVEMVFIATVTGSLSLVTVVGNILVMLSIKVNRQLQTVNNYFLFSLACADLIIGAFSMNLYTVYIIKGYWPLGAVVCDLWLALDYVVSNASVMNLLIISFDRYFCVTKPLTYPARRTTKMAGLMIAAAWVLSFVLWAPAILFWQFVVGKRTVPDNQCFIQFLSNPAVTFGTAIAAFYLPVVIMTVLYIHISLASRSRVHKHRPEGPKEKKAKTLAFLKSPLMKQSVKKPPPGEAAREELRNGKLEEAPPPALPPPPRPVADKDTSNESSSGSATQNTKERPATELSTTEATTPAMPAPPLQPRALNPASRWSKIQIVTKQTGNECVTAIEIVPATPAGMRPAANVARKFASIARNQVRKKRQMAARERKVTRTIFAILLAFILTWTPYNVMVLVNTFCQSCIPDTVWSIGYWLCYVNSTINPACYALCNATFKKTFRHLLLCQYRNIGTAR
Another series has as its target D(1B) dopamine receptor (Homo sapiens, UniProt P21918). Description: Binding affinity to dopamine D5 receptor (unknown origin) assessed as inhibition constant.
The target of series [6] is Alpha-2B adrenergic receptor (Homo sapiens, UniProt P18089). Description: Binding affinity to alpha2B receptor (unknown origin) assessed as inhibition constant.
Series [7] has as its target Muscarinic acetylcholine receptor M2 (Homo sapiens, UniProt P08172). The series is described as follows: Binding affinity to M2 receptor (unknown origin) assessed as inhibition constant.
The target of series [8] is 5-hydroxytryptamine receptor 2B (Homo sapiens, UniProt P41595). The series is described as follows: Binding affinity to 5-HT2B receptor (unknown origin) assessed as inhibition constant.
5-hydroxytryptamine receptor 2B, sequence (P41595 whole entry): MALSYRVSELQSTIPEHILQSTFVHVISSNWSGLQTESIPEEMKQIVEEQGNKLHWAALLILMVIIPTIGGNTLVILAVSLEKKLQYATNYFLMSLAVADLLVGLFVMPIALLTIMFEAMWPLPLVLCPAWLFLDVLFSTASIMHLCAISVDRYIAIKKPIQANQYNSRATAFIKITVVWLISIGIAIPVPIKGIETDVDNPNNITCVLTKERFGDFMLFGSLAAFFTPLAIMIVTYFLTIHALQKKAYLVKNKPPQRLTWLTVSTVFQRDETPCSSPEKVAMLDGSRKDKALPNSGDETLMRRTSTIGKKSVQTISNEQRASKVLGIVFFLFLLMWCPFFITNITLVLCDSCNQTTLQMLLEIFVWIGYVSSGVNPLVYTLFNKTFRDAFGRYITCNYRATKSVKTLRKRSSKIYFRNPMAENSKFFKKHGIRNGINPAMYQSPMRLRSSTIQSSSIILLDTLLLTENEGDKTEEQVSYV
For the next series, the target named is D(1A) dopamine receptor (Homo sapiens, UniProt P21728). Description: Binding affinity to dopamine D1 receptor (unknown origin) assessed as inhibition constant.
D(1A) dopamine receptor, sequence (P21728 whole entry): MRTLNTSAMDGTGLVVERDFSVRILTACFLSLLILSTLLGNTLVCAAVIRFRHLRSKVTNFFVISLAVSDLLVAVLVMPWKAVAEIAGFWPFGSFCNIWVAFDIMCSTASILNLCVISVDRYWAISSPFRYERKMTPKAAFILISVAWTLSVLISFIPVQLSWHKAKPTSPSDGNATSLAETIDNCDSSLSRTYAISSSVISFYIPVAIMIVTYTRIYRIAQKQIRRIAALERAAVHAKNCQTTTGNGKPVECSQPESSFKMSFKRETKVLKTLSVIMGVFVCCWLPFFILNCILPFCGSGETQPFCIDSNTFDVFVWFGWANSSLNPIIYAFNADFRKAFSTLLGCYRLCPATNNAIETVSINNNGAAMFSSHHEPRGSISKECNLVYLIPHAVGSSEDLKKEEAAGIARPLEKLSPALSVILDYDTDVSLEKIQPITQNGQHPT
A short description of series [9]: Metabolic stability in human liver microsomes assessed as half life at 10 uM measured upto 60 mins in presence of NADPH by LC-MS/MS analysis. The series is classed as ADME, Microsome. The following applies: for half-life at 10 µM: liver microsomes.
Series [10] addresses Kappa-type opioid receptor (Homo sapiens, UniProt P41145). Description: Binding affinity to KOR receptor (unknown origin) assessed as inhibition constant.
Another series has as its target Histamine H2 receptor (Homo sapiens, UniProt P25021). The series is described as follows: Binding affinity to histamine H2 receptor (unknown origin) assessed as inhibition constant.
In series [11] the target is Sigma non-opioid intracellular receptor 1 (Homo sapiens, UniProt Q99720). Description: Displacement of [3H](+)-pentazocine from human sigma 1 receptor transfected in human HEK293T cells assessed as inhibition constant by radioligand competition binding assay. The series is classed as cell-based.
Sigma non-opioid intracellular receptor 1, sequence (Q99720 whole entry): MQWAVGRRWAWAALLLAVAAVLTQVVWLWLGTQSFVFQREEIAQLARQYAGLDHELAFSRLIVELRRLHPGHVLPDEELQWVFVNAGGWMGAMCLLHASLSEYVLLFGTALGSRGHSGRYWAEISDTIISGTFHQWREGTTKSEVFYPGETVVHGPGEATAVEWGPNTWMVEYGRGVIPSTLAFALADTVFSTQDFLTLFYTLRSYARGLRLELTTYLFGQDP
Series [12] concerns the target 5-hydroxytryptamine receptor 1A (Homo sapiens, UniProt P08908). The series is described as follows: Binding affinity to 5-HT1A receptor (unknown origin) assessed as inhibition constant.
A further series has as its target D(3) dopamine receptor (Homo sapiens, UniProt P35462). The series is described as follows: Binding affinity to dopamine D3 receptor (unknown origin) assessed as inhibition constant.
For the next series, the target named is Histamine H3 receptor (Homo sapiens, UniProt Q9Y5N1). The series is described as follows: Binding affinity to histamine H3 receptor (unknown origin) assessed as inhibition constant.
Histamine H3 receptor, sequence (Q9Y5N1 whole entry): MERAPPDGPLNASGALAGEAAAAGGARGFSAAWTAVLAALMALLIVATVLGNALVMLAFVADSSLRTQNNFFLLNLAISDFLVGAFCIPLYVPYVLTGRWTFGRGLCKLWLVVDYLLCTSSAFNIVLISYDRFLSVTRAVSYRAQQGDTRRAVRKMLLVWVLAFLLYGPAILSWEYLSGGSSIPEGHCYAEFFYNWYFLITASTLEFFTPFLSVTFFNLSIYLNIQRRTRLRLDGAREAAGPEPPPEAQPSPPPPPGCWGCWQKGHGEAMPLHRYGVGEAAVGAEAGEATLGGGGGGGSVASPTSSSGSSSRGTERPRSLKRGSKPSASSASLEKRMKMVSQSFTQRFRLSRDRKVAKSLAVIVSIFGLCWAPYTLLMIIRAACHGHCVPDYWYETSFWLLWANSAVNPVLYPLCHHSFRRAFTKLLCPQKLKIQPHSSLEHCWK
For series [13], the target named is Muscarinic acetylcholine receptor M3 (Homo sapiens, UniProt P20309). The series is described as follows: Binding affinity to M3 receptor (unknown origin) assessed as inhibition constant.
Series [14] concerns the target Alpha-2A adrenergic receptor (Homo sapiens, UniProt P08913). The series is described as follows: Binding affinity to alpha2A receptor (unknown origin) assessed as inhibition constant.
Series [15] concerns the target Muscarinic acetylcholine receptor M5 (Homo sapiens, UniProt P08912). Description: Binding affinity to M5 receptor (unknown origin) assessed as inhibition constant.
Series [16] in a line: Cytotoxicity against HEK293 cells measured after 72 hrs by MTT assay. The class given is toxicity, cell-based. The following applies: human. (In general: Tetrazolium assays rely on reduction of a dye to a coloured formazan, in cell work by metabolically active cells.)
The nature of series [17]: Cytotoxicity against HPDE cells measured after 72 hrs by MTT assay. The class given is toxicity, cell-based. The note with it: human.
Series [18] has as its system MIA PaCa-2. Description: Antagonistic cytotoxicity against human MIA PaCa-2 cells at 0.001 to 0.1 uM measured after 7 days in presence of ammonium tetrathiomolybdate by crystal violet staining based analysis. The class given is functional, cell-based. The following applies: dose 0.001-0.1 µM, time 7.0 day.
For series [19], the system named is MIA PaCa-2. Description: Inhibition of colony formation in human MIA PaCa-2 cells at 0.04 to 30 uM pretreated with ammonium tetrathiomolybdate for 4 hrs followed by compound addition and measured after 6 days. The class given is functional, cell-based. The note with it: dose 0.04-30 µM, time 6.0 day.
The subject of the next series is HCT-116. The series is described as follows: Inhibition of colony formation in human HCT-116 cells at 0.04 to 30 uM pretreated with ammonium tetrathiomolybdate for 4 hrs followed by compound addition and measured after 6 days. The class given is functional, cell-based. The following applies: dose 0.04-30 µM, time 6.0 day.
A further series relates to PANC-1. The series is described as follows: cells. The note with it: Homo sapiens, PANC-1, 72 h.
A short description of series [20]: Cytotoxicity against HFF-1 cells measured after 72 hrs by MTT assay. The series is classed as toxicity, cell-based. The following applies: human.
Another series is described as follows: cells. The following applies: Mus musculus, KPC2, 72 h.
Another series has as its system BXPC-3. Description: cells. The following applies: Homo sapiens, BXPC-3, 72 h.
Series [21] relates to MIA PaCa-2. Description: Synergistic cytotoxicity against human MIA PaCa-2 cells at 0.001 to 0.1 uM measured after 7 days in presence of copper chloride by crystal violet staining based analysis. The class given is functional, cell-based. The following applies: dose 0.001-0.1 µM, time 7.0 day.
The test system of the next series is Panc02. The series is described as follows: cells. The note with it: Mus musculus, Panc02, 72 h.
For series [22], the system named is MIA PaCa-2. Description: Upregulation of GRP78 in human MIA PaCa-2 cells at 10 to 30 uM measured after 24 hrs by Western blot analysis. The note with it: dose 10-30 µM. The class given is functional, cell-based.
Series [23] concerns MIA PaCa-2. The series is described as follows: cells. The note with it: Homo sapiens, MIA PaCa-2, 72 h.

Sigma intracellular receptor 2, sequence (Q5BJF2 whole entry): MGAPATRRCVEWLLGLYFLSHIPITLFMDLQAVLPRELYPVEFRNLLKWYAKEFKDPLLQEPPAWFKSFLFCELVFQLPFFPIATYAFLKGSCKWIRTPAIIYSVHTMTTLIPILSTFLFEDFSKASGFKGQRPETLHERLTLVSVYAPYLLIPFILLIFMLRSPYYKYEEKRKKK
Alpha-2A adrenergic receptor, sequence (P08913 whole entry): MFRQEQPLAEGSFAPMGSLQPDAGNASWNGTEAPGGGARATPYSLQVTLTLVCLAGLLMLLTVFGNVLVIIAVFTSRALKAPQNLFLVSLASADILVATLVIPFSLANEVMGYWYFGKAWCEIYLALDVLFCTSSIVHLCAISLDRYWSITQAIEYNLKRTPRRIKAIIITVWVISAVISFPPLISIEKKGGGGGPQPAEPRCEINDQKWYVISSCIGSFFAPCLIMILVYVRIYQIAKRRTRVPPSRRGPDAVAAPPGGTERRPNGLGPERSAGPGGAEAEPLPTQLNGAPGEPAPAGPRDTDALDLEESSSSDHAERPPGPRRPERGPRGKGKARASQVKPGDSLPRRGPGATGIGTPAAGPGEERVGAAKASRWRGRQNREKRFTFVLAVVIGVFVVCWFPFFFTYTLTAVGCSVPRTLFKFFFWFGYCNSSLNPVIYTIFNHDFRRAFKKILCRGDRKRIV
Muscarinic acetylcholine receptor M2, sequence (P08172 whole entry): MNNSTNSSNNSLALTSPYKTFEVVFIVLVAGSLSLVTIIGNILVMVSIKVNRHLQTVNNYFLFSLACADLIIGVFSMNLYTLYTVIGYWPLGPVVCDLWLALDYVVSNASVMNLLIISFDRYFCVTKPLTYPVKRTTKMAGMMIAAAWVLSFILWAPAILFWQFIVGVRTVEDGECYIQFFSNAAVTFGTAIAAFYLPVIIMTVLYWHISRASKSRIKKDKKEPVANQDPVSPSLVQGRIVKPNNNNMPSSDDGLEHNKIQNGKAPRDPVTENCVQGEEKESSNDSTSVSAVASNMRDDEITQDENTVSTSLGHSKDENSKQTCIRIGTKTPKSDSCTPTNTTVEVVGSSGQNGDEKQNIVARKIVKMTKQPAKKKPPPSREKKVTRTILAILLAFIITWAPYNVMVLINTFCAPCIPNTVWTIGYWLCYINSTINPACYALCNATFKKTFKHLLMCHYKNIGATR
Muscarinic acetylcholine receptor M5, sequence (P08912 whole entry): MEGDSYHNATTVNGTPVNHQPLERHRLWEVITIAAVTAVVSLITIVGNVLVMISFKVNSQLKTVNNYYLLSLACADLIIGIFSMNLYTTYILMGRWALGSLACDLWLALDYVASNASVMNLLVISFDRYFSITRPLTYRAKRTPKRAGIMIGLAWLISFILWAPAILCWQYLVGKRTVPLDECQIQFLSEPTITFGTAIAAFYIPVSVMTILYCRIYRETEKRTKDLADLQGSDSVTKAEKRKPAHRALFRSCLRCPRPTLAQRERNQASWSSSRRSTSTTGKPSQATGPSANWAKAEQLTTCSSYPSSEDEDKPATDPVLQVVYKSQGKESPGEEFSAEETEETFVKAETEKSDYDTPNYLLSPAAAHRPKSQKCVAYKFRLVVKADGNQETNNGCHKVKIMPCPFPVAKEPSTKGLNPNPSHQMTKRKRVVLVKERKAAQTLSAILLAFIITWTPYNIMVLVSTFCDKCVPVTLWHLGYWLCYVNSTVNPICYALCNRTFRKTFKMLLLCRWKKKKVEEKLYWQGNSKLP
Histamine H2 receptor, sequence (P25021 whole entry): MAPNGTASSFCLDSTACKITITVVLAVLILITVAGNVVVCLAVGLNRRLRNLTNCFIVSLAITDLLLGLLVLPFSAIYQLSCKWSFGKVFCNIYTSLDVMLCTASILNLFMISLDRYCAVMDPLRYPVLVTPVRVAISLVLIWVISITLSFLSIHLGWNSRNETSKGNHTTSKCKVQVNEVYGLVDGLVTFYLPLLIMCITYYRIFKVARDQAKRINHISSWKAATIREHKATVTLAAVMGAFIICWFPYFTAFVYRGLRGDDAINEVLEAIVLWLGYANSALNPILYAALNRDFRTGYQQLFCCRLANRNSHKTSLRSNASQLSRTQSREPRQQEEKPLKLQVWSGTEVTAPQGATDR
D(3) dopamine receptor, sequence (P35462 whole entry): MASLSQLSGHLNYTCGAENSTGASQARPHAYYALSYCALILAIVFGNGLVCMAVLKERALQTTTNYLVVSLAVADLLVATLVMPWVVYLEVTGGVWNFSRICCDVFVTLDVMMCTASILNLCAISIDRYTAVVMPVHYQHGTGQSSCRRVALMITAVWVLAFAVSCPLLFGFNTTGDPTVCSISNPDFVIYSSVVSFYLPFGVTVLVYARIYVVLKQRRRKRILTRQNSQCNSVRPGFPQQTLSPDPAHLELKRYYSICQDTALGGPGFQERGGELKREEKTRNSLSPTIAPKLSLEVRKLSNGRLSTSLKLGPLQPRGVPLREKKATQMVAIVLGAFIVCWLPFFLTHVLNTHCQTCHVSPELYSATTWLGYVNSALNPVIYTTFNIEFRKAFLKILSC

Consider `CCN(CC)CCCC(C)Nc1cnc(C(=O)Nc2cc(F)cc3cccnc23)cn1` (stereo not given), for which the inhibitory constant (Ki) (commonly the dissociation constant of the complex between target and ligand, obtained from inhibition or displacement) in [1] was determined as 99 nM; in series [2], 10 nM; in series [4], 717 nM; in series [5], 279 nM; at D(1B) dopamine receptor, 2830 nM; in series [6], 2010 nM. Also, the inhibitory constant (Ki) in [7] is 386 nM; in [8] it was greater than 10 µM; at D(1A) dopamine receptor it was 5.47 µM; in [10], 713 nM; at Histamine H2 receptor it was 750 nM; in [11], 165 nM. The inhibitory constant (Ki) is 743 nM in [12]; 726 nM at D(3) dopamine receptor; 1200 nM on Histamine H3 receptor; 1350 nM in [13]; 673 nM in [14]; 373 nM in series [15]. Also, in [3], the t1/2 is recorded as 45.3 min. The half-life (commonly how long it takes for the measured level to halve) at 10 µM in series [9] was greater than 60 min.

Turning to `O=C(Nc1cccc2cccnc12)c1cnccn1`, the results for the IC50 at 72 h in series [16], in [17] and in series [20] were 200 nM, 600 nM and greater than 30 µM, respectively. Also, the outcome in the series on MIA PaCa-2 [18] and with MIA PaCa-2 [21] was Active. Further, the inhibition entry with MIA PaCa-2 [19] and with HCT-116 was “inactive” in each case. For the same molecule, the half-inhibitory concentration (IC50) (usually the point on the concentration scale where inhibition reaches its midpoint) is 1700 nM with PANC-1, 200 nM in the series “cells”, 1800 nM in the series with BXPC-3 and 300 nM in the series on Panc02.

Consider `Fc1ccc(-n2cc(CCCCN3CCC4(CC3)OCc3ccccc34)c3ccccc32)cc1`, for which the outcome with MIA PaCa-2 [22] was Active.

As for `O=C(CN1CCC(CN2Cc3ccccc3C2=O)CC1)c1ccc(F)cc1`, in the series with MIA PaCa-2 [22], the outcome was Active.

For `CCN(CC)CCCC(C)Nc1nc(C(=O)Nc2cc(F)cc3cccnc23)cs1` (stereo not given), the Ki in series [2] was found to be 32 nM; in series [11], 159 nM. Besides, the t1/2 in [3] is 3.3 min; in series [9] (microsomes, 1 h, 10 µM), 23 min. In addition, the half-maximal inhibitory concentration (IC50) with MIA PaCa-2 [23] was 1500 nM.

With `CCN(CC)CCCC(C)Nc1cnc(C(=O)Nc2cccc3ccc(OC)nc23)cn1` (stereo not given), the results for the inhibitory constant (Ki) in [2] and in series [11] were 13 nM and 67 nM, respectively. Also, in [3], the t1/2 is 54 min. The molecule further came in with an IC50 in the series on MIA PaCa-2 [23] of 1900 nM. The half-life at 10 µM in series [9] was greater than 60 min.

For the molecule `Nc1ccn([C@@H]2O[C@H](CO)[C@@H](O)C2(F)F)c(=O)n1` [GEMCITABINE], the half-maximal inhibitory concentration (IC50) at 72 h came out at 100 nM in series [16] and 1 nM in series [17].
